# Experimental data: ChEMBL document CHEMBL5584358, “Fungal Coculture of Herpotrichia sp. and Trametes versicolor Induces Production of Diverse Metabolites with Anti-Parkinson's Neuroprotective Activity” (J Nat Prod, 2024)
# Experiments:
# PC-12 [1] = test: Neuroprotective activity against MPP+-induced rat PC12 cell death assessed as upregulation of Rab5al1 gene expression at 1 to 10 uM preincubated for 1 hr followed by MPP+ addition and measured after 24 hrs by RNA sequencing analysis relative to control; assay type: functional; conditions: dose 1-10 µM; time 25 hrs
# PC-12 [2] = test: Neuroprotective activity against MPP+-induced rat PC12 cell death assessed as upregulation of Rph3a gene expression at 1 to 10 uM preincubated for 1 hr followed by MPP+ addition and measured after 24 hrs by RNA sequencing analysis relative to control; assay type: functional; conditions: dose 1-10 µM; time 25 hrs
# PC-12 [3] = test: Neuroprotective activity against MPP+-induced rat PC12 cell death assessed as upregulation of Stat6 gene expression at 1 to 10 uM preincubated for 1 hr followed by MPP+ addition and measured after 24 hrs by RNA sequencing analysis relative to control; assay type: functional; conditions: dose 1-10 µM; time 25 hrs
# PC-12 [4] = test: Neuroprotective activity against MPP+-induced rat PC12 cell death assessed as downregulation of Prorp gene expression at 1 to 10 uM preincubated for 1 hr followed by MPP+ addition and measured after 24 hrs by RNA sequencing analysis relative to control; assay type: functional; conditions: dose 1-10 µM; time 25 hrs
# PC-12 [5] = test: Neuroprotective activity against MPP+-induced rat PC12 cell death assessed as upregulation of Plau gene expression at 1 to 10 uM preincubated for 1 hr followed by MPP+ addition and measured after 24 hrs by RNA sequencing analysis relative to control; assay type: functional; conditions: dose 1-10 µM; time 25 hrs
# PC-12 [6] = test: Neuroprotective activity against MPP+-induced rat PC12 cell death assessed as downregulation of Anxa1 gene expression at 1 to 10 uM preincubated for 1 hr followed by MPP+ addition and measured after 24 hrs by RNA sequencing analysis relative to control; assay type: functional; conditions: dose 1-10 µM; time 25 hrs
# PC-12 [7] = test: Neuroprotective activity against MPP+-induced rat PC12 cell death assessed as downregulation of Xiap gene expression at 1 to 10 uM preincubated for 1 hr followed by MPP+ addition and measured after 24 hrs by RNA sequencing analysis relative to control; assay type: functional; conditions: dose 1-10 µM; time 25 hrs
# PC-12 [8] = test: Neuroprotective activity against MPP+-induced rat PC12 cell death assessed as downregulation of Ugt1a3 gene expression at 1 to 10 uM preincubated for 1 hr followed by MPP+ addition and measured after 24 hrs by RNA sequencing analysis relative to control; assay type: functional; conditions: dose 1-10 µM; time 25 hrs
# PC-12 [9] = test: Neuroprotective activity against MPP+-induced rat PC12 cell death assessed as upregulation of Cebpd gene expression at 1 to 10 uM preincubated for 1 hr followed by MPP+ addition and measured after 24 hrs by RNA sequencing analysis relative to control; assay type: functional; conditions: dose 1-10 µM; time 25 hrs
# PC-12 [10] = test: Neuroprotective activity against MPP+-induced rat PC12 cell death assessed as increase in cell viability preincubated for 1 hr followed by MPP+ addition and measured after 24 hrs by CCK-8 assay; assay type: functional, cell-based; conditions: dose 1-20 µM, time 25.0 hrs
# PC-12 [11] = test: Neuroprotective activity against MPP+-induced rat PC12 cell death assessed as upregulation of Des gene expression at 1 to 10 uM preincubated for 1 hr followed by MPP+ addition and measured after 24 hrs by RNA sequencing analysis relative to control; assay type: functional; conditions: dose 1-10 µM; time 25 hrs
# PC-12 [12] = test: Neuroprotective activity against MPP+-induced rat PC12 cell death assessed as upregulation of Ets1 gene expression at 1 to 10 uM preincubated for 1 hr followed by MPP+ addition and measured after 24 hrs by RNA sequencing analysis relative to control; assay type: functional; conditions: dose 1-10 µM; time 25 hrs
# PC-12 [13] = test: Neuroprotective activity against MPP+-induced rat PC12 cell death assessed as upregulation of Prkce gene expression at 1 to 10 uM preincubated for 1 hr followed by MPP+ addition and measured after 24 hrs by RNA sequencing analysis relative to control; assay type: functional; conditions: dose 1-10 µM; time 25 hrs
# PC-12 [14] = test: Neuroprotective activity against MPP+-induced rat PC12 cell death assessed as upregulation of Rps27a gene expression at 1 to 10 uM preincubated for 1 hr followed by MPP+ addition and measured after 24 hrs by RNA sequencing analysis relative to control; assay type: functional; conditions: dose 1-10 µM; time 25 hrs
# PC-12 [15] = test: Neuroprotective activity against MPP+-induced rat PC12 cell death assessed as upregulation of Tars2 gene expression at 1 to 10 uM preincubated for 1 hr followed by MPP+ addition and measured after 24 hrs by RNA sequencing analysis relative to control; assay type: functional; conditions: dose 1-10 µM; time 25 hrs
# PC-12 [16] = test: Neuroprotective activity against MPP+-induced rat PC12 cell death assessed as upregulation of Scn4b gene expression at 1 to 10 uM preincubated for 1 hr followed by MPP+ addition and measured after 24 hrs by RNA sequencing analysis relative to control; assay type: functional; conditions: dose 1-10 µM; time 25 hrs
# PC-12 [17] = test: Cytotoxicity against rat PC12 cells assessed as effect on cell viability at 20 uM measured after 24 hrs by CCK-8 assay; assay type: toxicity, cell-based; conditions: pc-12, 24 h
# PC-12 [18] = test: Neuroprotective activity against MPP+-induced rat PC12 cell death assessed as upregulation of Gpt gene expression at 1 to 10 uM preincubated for 1 hr followed by MPP+ addition and measured after 24 hrs by RNA sequencing analysis relative to control; assay type: functional; conditions: dose 1-10 µM; time 25 hrs
# PC-12 [19] = test: Neuroprotective activity against MPP+-induced rat PC12 cell death assessed as upregulation of Mtr gene expression at 1 to 10 uM preincubated for 1 hr followed by MPP+ addition and measured after 24 hrs by RNA sequencing analysis relative to control; assay type: functional; conditions: dose 1-10 µM; time 25 hrs
# PC-12 [20] = test: Neuroprotective activity against MPP+-induced rat PC12 cell death assessed as downregulation of Adora1 gene expression at 1 to 10 uM preincubated for 1 hr followed by MPP+ addition and measured after 24 hrs by RNA sequencing analysis relative to control; assay type: functional; conditions: dose 1-10 µM; time 25 hrs
# PC-12 [21] = test: Neuroprotective activity against MPP+-induced rat PC12 cell death assessed as cell viability at 20 uM preincubated for 1 hr followed by MPP+ addition and measured after 24 hrs by CCK-8 assay (reference value: 57%); assay type: functional; conditions: time 25 hrs, read-out: Activity
# PC-12 [22] = test: Neuroprotective activity against MPP+-induced rat PC12 cell death assessed as downregulation of Sesn2 gene expression at 1 to 10 uM preincubated for 1 hr followed by MPP+ addition and measured after 24 hrs by RNA sequencing analysis relative to control; assay type: functional; conditions: dose 1-10 µM; time 25 hrs
# PC-12 [23] = test: Neuroprotective activity against MPP+-induced rat PC12 cell death assessed as downregulation of Nlrp1a gene expression at 1 to 10 uM preincubated for 1 hr followed by MPP+ addition and measured after 24 hrs by RNA sequencing analysis relative to control; assay type: functional; conditions: dose 1-10 µM; time 25 hrs
# PC-12 [24] = test: Neuroprotective activity against MPP+-induced rat PC12 cell death assessed as upregulation of Tnr gene expression at 1 to 10 uM preincubated for 1 hr followed by MPP+ addition and measured after 24 hrs by RNA sequencing analysis relative to control; assay type: functional; conditions: dose 1-10 µM; time 25 hrs
# PC-12 [25] = test: Neuroprotective activity against MPP+-induced rat PC12 cell death assessed as upregulation of Cyp2d4 gene expression at 1 to 10 uM preincubated for 1 hr followed by MPP+ addition and measured after 24 hrs by RNA sequencing analysis relative to control; assay type: functional; conditions: dose 1-10 µM; time 25 hrs
# PC-12 [26] = test: Neuroprotective activity against MPP+-induced rat PC12 cell death assessed as upregulation of Nat1 gene expression at 1 to 10 uM preincubated for 1 hr followed by MPP+ addition and measured after 24 hrs by RNA sequencing analysis relative to control; assay type: functional; conditions: dose 1-10 µM; time 25 hrs
smiles,measurement,setting,value
C=C1CC[C@H]2C(C)(C)[C@@H](O)C[C@@H](O)[C@]2(C)[C@H]1CO,log2FC,PC-12 [1],>0.4
same,log2FC,PC-12 [2],>0.4
same,log2FC,PC-12 [3],>0.4
same,log2FC,PC-12 [4],>0.4
same,log2FC,PC-12 [5],>0.4
same,log2FC,PC-12 [6],>0.4
same,log2FC,PC-12 [7],>0.4
same,log2FC,PC-12 [8],>0.4
same,log2FC,PC-12 [9],>0.4
same,Activity,PC-12 [10],Dose-Dependent Effect
same,log2FC,PC-12 [11],>0.4
same,log2FC,PC-12 [12],>0.4
same,log2FC,PC-12 [13],>0.4
same,log2FC,PC-12 [14],>0.4
same,log2FC,PC-12 [15],>0.4
same,log2FC,PC-12 [16],>0.4
same,Activity,PC-12 [17],Non-Toxic
same,log2FC,PC-12 [18],>0.4
same,log2FC,PC-12 [19],>0.4
same,log2FC,PC-12 [20],>0.4
same,viability at 20 µM,PC-12 [21],71%
same,log2FC,PC-12 [22],>0.4
same,log2FC,PC-12 [23],>0.4
same,log2FC,PC-12 [24],>0.4
same,log2FC,PC-12 [25],>0.4
same,log2FC,PC-12 [26],>0.4
